Laboratory results from article PMC12324462 (bioRxiv, 2025).

Biological target: CDK9 (Homo sapiens, UniProt P50750)
Assay: in vitro kinase assay
Type: biochemical

CDK9, sequence (P50750 whole entry): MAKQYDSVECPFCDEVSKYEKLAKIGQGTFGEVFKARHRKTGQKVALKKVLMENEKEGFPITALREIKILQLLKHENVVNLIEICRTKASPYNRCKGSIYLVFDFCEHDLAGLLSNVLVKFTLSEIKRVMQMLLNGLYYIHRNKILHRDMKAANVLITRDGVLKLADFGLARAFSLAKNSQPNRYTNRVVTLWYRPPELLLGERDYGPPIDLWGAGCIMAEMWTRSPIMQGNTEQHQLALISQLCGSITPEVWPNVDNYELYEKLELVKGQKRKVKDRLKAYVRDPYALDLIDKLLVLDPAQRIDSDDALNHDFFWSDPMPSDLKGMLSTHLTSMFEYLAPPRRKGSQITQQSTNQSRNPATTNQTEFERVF

IC50: 650 nM
SMILES: Cc1cc(O)c(-c2ccc([C@@H](C)CN(C)C)cc2)c2c1[nH]c(=O)c1sccc12 [OTS964]
